Results published in ChEMBL document CHEMBL1201861, “Genomics of Drug Sensitity in Cancer screening data, Wellcome Trust Sanger Institute”.

Columns and labels:
Assay in all cases: cells
[1] = test system: HCE-T; assay type: functional, cell-based, Homo sapiens; conditions: Homo sapiens, HCE-T;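 also: cell viability assay read-out, reporting inhibition of HCE-T cell growth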
Description: SANGER: Inhibition of human HCE-T cell growth in a cell viability assay.

[2] = test system: EFM-19; assay type: functional, cell-based, Homo sapiens; conditions: Homo sapiens, EFM-19;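 also: growth inhibition of human EFM-19 cells, measured in a cell viability assay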
Description: SANGER: Inhibition of human EFM-19 cell growth in a cell viability assay.

[3] = test system: EGI-1; assay type: functional, cell-based, Homo sapiens; conditions: Homo sapiens, EGI-1;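 also: cell viability readout used to gauge growth inhibition of EGI-1 cells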
Description: SANGER: Inhibition of human EGI-1 cell growth in a cell viability assay.

[4] = test system: SW13; assay type: functional, cell-based, Homo sapiens; conditions: Homo sapiens, SW13;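 also: IC50 is inhibition of SW13 cell growth, read out with a cell viability assay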
Description: SANGER: Inhibition of human SW13 cell growth in a cell viability assay.

[5] = test system: SAOS-2; assay type: functional, cell-based, Homo sapiens; conditions: Homo sapiens, SAOS-2;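 also: growth inhibition of human Saos-2 cells determined by a cell viability assay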
Description: SANGER: Inhibition of human Saos-2 cell growth in a cell viability assay.

[6] = test system: U-266; assay type: functional, cell-based; conditions: Homo sapiens
Description: SANGER: Inhibition of human U-266 cell growth in a cell viability assay.

[7] = test system: COLO-741; assay type: functional, cell-based, Homo sapiens; conditions: Homo sapiens, COLO-741
Description: SANGER: Inhibition of human COLO-741 cell growth in a cell viability assay.

[8] = test system: Lu-65; assay type: functional, cell-based; conditions: Homo sapiens;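 also: growth inhibition of Lu-65 cancer cells, read out by a cell viability assay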
Description: SANGER: Inhibition of human LU-65 cell growth in a cell viability assay.

[9] = test system: A101D; assay type: functional, cell-based, Homo sapiens; conditions: Homo sapiens, A101D;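 also: growth inhibition of the cell line, measured with a viability assay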
Description: SANGER: Inhibition of human A101D cell growth in a cell viability assay.

[10] = test system: Huh-7; assay type: functional, cell-based, Homo sapiens; conditions: Homo sapiens, Huh-7;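 also: HuH-7 cell growth inhibition, read out with a cell viability assay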
Description: SANGER: Inhibition of human HuH-7 cell growth in a cell viability assay.

[11] = test system: AGS; assay type: functional, cell-based, Homo sapiens; conditions: Homo sapiens, AGS;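 also: growth inhibition of AGS cells, determined with a cell viability assay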
Description: SANGER: Inhibition of human AGS cell growth in a cell viability assay.

[12] = test system: RVH-421; assay type: functional, cell-based, Homo sapiens; conditions: Homo sapiens, RVH-421
Description: SANGER: Inhibition of human RVH-421 cell growth in a cell viability assay.

[13] = test system: KG-1; assay type: functional, cell-based; conditions: Homo sapiens;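 also: growth inhibition of KG-1 cells, read out by a cell viability assay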
Description: SANGER: Inhibition of human KG-1 cell growth in a cell viability assay.

[14] = test system: NCI-N87; assay type: functional, cell-based, Homo sapiens; conditions: Homo sapiens, NCI-N87;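 also: growth inhibition of human NCI-N87 cells, read out with a cell viability assay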
Description: SANGER: Inhibition of human NCI-N87 cell growth in a cell viability assay.

[15] = test system: CaR-1; assay type: functional, cell-based, Homo sapiens; conditions: Homo sapiens, CaR-1;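 also: growth inhibition of human CaR-1 cancer cells, read out with a cell viability assay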
Description: SANGER: Inhibition of human CaR-1 cell growth in a cell viability assay.

[16] = test system: SCC-4; assay type: functional, cell-based, Homo sapiens; conditions: Homo sapiens, SCC-4;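 also: growth inhibition of human SCC-4 cells, read out as cell viability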
Description: SANGER: Inhibition of human SCC-4 cell growth in a cell viability assay.

[17] = test system: SHP77; assay type: functional, cell-based, Homo sapiens, SHP-77; conditions: Homo sapiens, SHP77;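 also: growth inhibition of human SHP-77 cells measured by a cell viability assay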
Description: SANGER: Inhibition of human SHP-77 cell growth in a cell viability assay.

[18] = test system: LS-513; assay type: functional, cell-based, Homo sapiens; conditions: Homo sapiens, LS-513
Description: SANGER: Inhibition of human LS-513 cell growth in a cell viability assay.

[19] = test system: SW48; assay type: functional, cell-based, Homo sapiens; conditions: Homo sapiens, SW48;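 also: growth inhibition of SW48 cells, read out with a cell viability assay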
Description: SANGER: Inhibition of human SW48 cell growth in a cell viability assay.

[20] = test system: U-87 MG; assay type: functional, cell-based, U-87MG ATCC; conditions: Homo sapiens;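 also: growth inhibition of the cells measured with a viability assay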
Description: SANGER: Inhibition of human U-87-MG cell growth in a cell viability assay.

[21] = test system: NCI-H747; assay type: functional, cell-based; conditions: Homo sapiens;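 also: growth inhibition of human NCI-H747 cells, read out by a cell viability assay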
Description: SANGER: Inhibition of human NCI-H747 cell growth in a cell viability assay.

[22] = test system: CAMA-1; assay type: functional, cell-based, Homo sapiens; conditions: Homo sapiens, CAMA-1;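 also: growth inhibition of CAMA-1 cells, read out with a cell viability assay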
Description: SANGER: Inhibition of human CAMA-1 cell growth in a cell viability assay.

[23] = test system: LK-2; assay type: functional, cell-based, Homo sapiens; conditions: Homo sapiens, LK-2;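 also: growth inhibition of LK-2 cells, read out with a viability assay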
Description: SANGER: Inhibition of human LK-2 cell growth in a cell viability assay.

[24] = test system: NCI-H650; assay type: functional, cell-based, Homo sapiens; conditions: Homo sapiens, NCI-H650;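 also: growth inhibition of NCI-H650 cells, read out by a viability assay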
Description: SANGER: Inhibition of human NCI-H650 cell growth in a cell viability assay.

[25] = test system: NCI-H510A; assay type: functional, cell-based; conditions: Homo sapiens;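 also: growth inhibition of NCI-H510A cells, read out with a cell viability assay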
Description: SANGER: Inhibition of human NCI-H510A cell growth in a cell viability assay.

[26] = test system: no-11; assay type: functional, cell-based, Homo sapiens; conditions: Homo sapiens;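 also: growth inhibition of human NO-11 cells, read out with a cell viability assay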
Description: SANGER: Inhibition of human no-11 cell growth in a cell viability assay.

[27] = test system: NCI-H1693; assay type: functional, cell-based, Homo sapiens; conditions: Homo sapiens, NCI-H1693;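 also: growth inhibition of the human cell line, read out with a cell viability assay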
Description: SANGER: Inhibition of human NCI-H1693 cell growth in a cell viability assay.

[28] = test system: SW1463; assay type: functional, cell-based, Homo sapiens; conditions: Homo sapiens, SW1463;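 also: growth inhibition of SW1463 cells, determined with a cell viability assay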
Description: SANGER: Inhibition of human SW1463 cell growth in a cell viability assay.

[29] = test system: BT-20; assay type: functional, cell-based, Homo sapiens; conditions: Homo sapiens, BT-20;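 also: cell viability assay measuring suppression of growth in human BT-20 cells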
Description: SANGER: Inhibition of human BT-20 cell growth in a cell viability assay.

[30] = test system: SW1710; assay type: functional, cell-based, Homo sapiens; conditions: Homo sapiens, SW1710;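 also: growth inhibition of SW1710 cells, determined with a cell viability assay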
Description: SANGER: Inhibition of human SW1710 cell growth in a cell viability assay.

[31] = test system: M14; assay type: functional, cell-based, Homo sapiens; conditions: Homo sapiens, M14;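 also: growth inhibition of M14 cells, read out with a cell viability assay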
Description: SANGER: Inhibition of human M14 cell growth in a cell viability assay.

[32] = test system: NCI-H1838; assay type: functional, cell-based, Homo sapiens; conditions: Homo sapiens, NCI-H1838;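 also: growth inhibition of NCI-H1838 cells, determined with a cell viability readout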
Description: SANGER: Inhibition of human NCI-H1838 cell growth in a cell viability assay.

[33] = test system: NCI-H28; assay type: functional, cell-based, Homo sapiens; conditions: Homo sapiens, NCI-H28;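 also: growth inhibition of human NCI-H28 cells, read out as cell viability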
Description: SANGER: Inhibition of human NCI-H28 cell growth in a cell viability assay.

[34] = test system: NCI-H520; assay type: functional, cell-based, Homo sapiens; conditions: Homo sapiens, NCI-H520;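 also: growth inhibition of NCI-H520 cells, measured by a cell viability assay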
Description: SANGER: Inhibition of human NCI-H520 cell growth in a cell viability assay.

[35] = test system: no-10; assay type: functional, cell-based, Homo sapiens; conditions: Homo sapiens;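 also: growth inhibition of no-10 cells, read out with a cell viability assay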
Description: SANGER: Inhibition of human no-10 cell growth in a cell viability assay.

[36] = test system: RCC10RGB; assay type: functional, cell-based, Homo sapiens; conditions: Homo sapiens, RCC10RGB;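 also: growth inhibition of human RCC10RGB cells, read out by a cell viability assay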
Description: SANGER: Inhibition of human RCC10RGB cell growth in a cell viability assay.

[37] = test system: HEC-1; assay type: functional, cell-based, Homo sapiens; conditions: Homo sapiens, HEC-1;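 also: growth inhibition of the cell line, read out with a cell viability assay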
Description: SANGER: Inhibition of human HEC-1 cell growth in a cell viability assay.

[38] = test system: HDLM-2; assay type: functional, cell-based; conditions: Homo sapiens;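 also: cell viability assay measuring suppression of HDLM-2 proliferation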
Description: SANGER: Inhibition of human HDLM-2 cell growth in a cell viability assay.

[39] = test system: RXF 393; assay type: functional, cell-based; conditions: Homo sapiens;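 also: growth inhibition of human RXF 393 cells, read out with a cell viability assay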
Description: SANGER: Inhibition of human RXF393 cell growth in a cell viability assay.

[40] = test system: MKN-1; assay type: functional, cell-based, Homo sapiens; conditions: Homo sapiens, MKN-1;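 also: growth inhibition of human MKN1 cells, read out by a cell viability measurement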
Description: SANGER: Inhibition of human MKN1 cell growth in a cell viability assay.

[41] = test system: NTERA-2-cl-D1; assay type: functional, cell-based, Homo sapiens; conditions: Homo sapiens, NTERA-2-cl-D1;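 also: inhibition of cell growth, measured with a cell viability assay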
Description: SANGER: Inhibition of human NTERA-S-cl-D1 cell growth in a cell viability assay.

[42] = test system: NKM-1; assay type: functional, cell-based; conditions: Homo sapiens;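 also: growth inhibition of NKM-1 cells, read out with a cell viability assay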
Description: SANGER: Inhibition of human NKM-1 cell growth in a cell viability assay.

[43] = test system: RKO; assay type: functional, cell-based, Homo sapiens; conditions: Homo sapiens, RKO;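 also: growth inhibition of human RKO cells, read out with a cell viability assay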
Description: SANGER: Inhibition of human RKO cell growth in a cell viability assay.

[44] = test system: CAL-27; assay type: functional, cell-based, Homo sapiens; conditions: Homo sapiens, CAL-27;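 also: Viability-based readout, IC50 reflecting inhibition of CAL-27 cell growth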
Description: SANGER: Inhibition of human CAL-27 cell growth in a cell viability assay.

[45] = test system: MHH-PREB-1; assay type: functional, cell-based; conditions: Homo sapiens;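 also: cell viability assay measuring inhibition of proliferation of human MHH-PREB-1 cells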
Description: SANGER: Inhibition of human MHH-PREB-1 cell growth in a cell viability assay.

[46] = test system: CGTH-W-1; assay type: functional, cell-based, Homo sapiens; conditions: Homo sapiens, CGTH-W-1;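 also: growth inhibition of human CGTH-W-1 cells measured by cell viability assay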
Description: SANGER: Inhibition of human CGTH-W-1 cell growth in a cell viability assay.

[47] = test system: SCC-9; assay type: functional, cell-based, Homo sapiens; conditions: Homo sapiens, SCC-9;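 also: Read-out is a cell viability assay, with values giving inhibition of cell growth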
Description: SANGER: Inhibition of human SCC-9 cell growth in a cell viability assay.

[48] = test system: CTB-1; assay type: functional, cell-based; conditions: Homo sapiens
Description: SANGER: Inhibition of human CTB-1 cell growth in a cell viability assay.

[49] = test system: 8305C; assay type: functional, cell-based, Homo sapiens; conditions: Homo sapiens, 8305C
Description: SANGER: Inhibition of human 8305C cell growth in a cell viability assay.

[50] = test system: ES5; assay type: functional, cell-based, Homo sapiens; conditions: Homo sapiens, ES5;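 also: growth inhibition of human ES5 cells, read out by a cell viability assay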
Description: SANGER: Inhibition of human ES5 cell growth in a cell viability assay.

[51] = test system: MC116; assay type: functional, cell-based; conditions: Homo sapiens;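 also: growth inhibition of MC116 cells, read out with a cell viability assay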
Description: SANGER: Inhibition of human MC116 cell growth in a cell viability assay.

[52] = test system: NCI-H2342; assay type: functional, cell-based; conditions: Homo sapiens;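 also: growth inhibition of the cancer cell line, determined with a cell viability assay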
Description: SANGER: Inhibition of human NCI-H2342 cell growth in a cell viability assay.

`Cn1cncc1[C@@](N)(c1ccc(Cl)cc1)c1ccc2c(c1)c(-c1cccc(Cl)c1)cc(=O)n2C` [TIPIFARNIB] gave an IC50 [1] of 8 µM, an IC50 [2] of 1750 nM and an IC50 [3] of 11.6 µM. For the same compound, the IC50 [4] was 3600 nM, the IC50 [5] was over 16 µM and the IC50 [6] was over 16 µM. It also gave an IC50 [7] of 6.55 µM, an IC50 [8] of over 16 µM and an IC50 [9] of 1870 nM. For the same compound, the IC50 [10] was 6050 nM, the IC50 [11] was 4530 nM and the IC50 [12] was over 16 µM. It also gave an IC50 [13] of 3.06 µM, an IC50 [14] of over 16 µM and an IC50 [15] of over 16 µM. It also gave an IC50 [16] of 1330 nM, an IC50 [17] of 9.94 µM and an IC50 [18] of over 16 µM. The IC50 [19] was 8610 nM, the IC50 [20] was over 16 µM and the IC50 [21] was 2660 nM. It also gave an IC50 [22] of over 16 µM, an IC50 [23] of 1060 nM and an IC50 [24] of 773 nM. It also gave an IC50 [25] of over 16 µM, an IC50 [26] of 4.01 µM and an IC50 [27] of over 16 µM. It also gave an IC50 [28] of over 16 µM, an IC50 [29] of over 16 µM and an IC50 [30] of 726 nM. It also gave an IC50 [31] of over 16 µM, an IC50 [32] of over 16 µM and an IC50 [33] of over 16 µM. For the same compound, the IC50 [34] was 2220 nM, the IC50 [35] was over 16 µM and the IC50 [36] was 8.49 µM. The IC50 [37] was 7150 nM, the IC50 [38] was over 16 µM and the IC50 [39] was over 16 µM. The IC50 [40] was 1880 nM, the IC50 [41] was 237 nM and the IC50 [42] was 774 nM. The IC50 [43] was 1230 nM, the IC50 [44] was 3.1 µM and the IC50 [45] was 3.3 µM. For the same compound, the IC50 [46] was 5010 nM, the IC50 [47] was over 16000 nM and the IC50 [48] was 7810 nM. It also gave an IC50 [49] of 976 nM, an IC50 [50] of over 16 µM and an IC50 [51] of 4.03 µM. For the same compound, the IC50 [52] was 380 nM.

Work on `COc1cc([C@@H]2c3cc4c(cc3[C@@H](O[C@@H]3O[C@@H]5CO[C@@H](C)O[C@H]5[C@H](O)[C@H]3O)[C@H]3COC(=O)[C@H]23)OCO4)cc(OC)c1O` [ETOPOSIDE] yielded an IC50 [1] of over 16 µM, an IC50 [2] of 868 nM and an IC50 [3] of 3.27 µM. For the same compound, the IC50 [4] was 1800 nM, the IC50 [5] was over 16 µM and the IC50 [6] was over 16 µM. For the same compound, the IC50 [7] was over 16 µM, the IC50 [8] was over 16 µM and the IC50 [9] was 1200 nM. The IC50 [10] was 2560 nM, the IC50 [11] was 318 nM and the IC50 [12] was over 16 µM. It also gave an IC50 [13] of 9.72 µM, an IC50 [14] of 15.8 µM and an IC50 [15] of 8.6 µM. The IC50 [16] was 7200 nM, the IC50 [17] was over 16 µM and the IC50 [18] was over 16 µM. For the same compound, the IC50 [19] was 869 nM, the IC50 [20] was over 16 µM and the IC50 [21] was over 16000 nM. For the same compound, the IC50 [22] was 13 µM, the IC50 [23] was 1410 nM and the IC50 [24] was 1710 nM. The IC50 [25] was 8.65 µM, the IC50 [26] was 7.56 µM and the IC50 [27] was over 16 µM. It also gave an IC50 [28] of over 16 µM, an IC50 [29] of 4.58 µM and an IC50 [30] of 518 nM. For the same compound, the IC50 [31] was 7.95 µM, the IC50 [32] was over 16 µM and the IC50 [33] was over 16 µM. The IC50 [34] was 8040 nM, the IC50 [35] was 3.49 µM and the IC50 [36] was over 16 µM. For the same compound, the IC50 [37] was 2370 nM, the IC50 [38] was 13.8 µM and the IC50 [39] was over 16 µM. For the same compound, the IC50 [40] was 382 nM, the IC50 [41] was 25 nM and the IC50 [42] was 425 nM. It also gave an IC50 [43] of 471 nM, an IC50 [44] of 10.4 µM and an IC50 [45] of over 16 µM. It also gave an IC50 [46] of 57.4 nM, an IC50 [47] of 850 nM and an IC50 [48] of 1690 nM. The IC50 [49] was 2320 nM, the IC50 [50] was over 16 µM and the IC50 [51] was over 16 µM. It also gave an IC50 [52] of 555 nM.

For `C[C@]1(O)C[C@@H](c2nc(-c3ccc4ccc(-c5ccccc5)nc4c3)c3c(N)nccn32)C1` [LINSITINIB], the IC50 [1] was over 2.56 µM, the IC50 [2] was over 2560 nM and the IC50 [3] was over 2.56 µM. For the same compound, the IC50 [4] was over 2560 nM, the IC50 [5] was 0.165 µM and the IC50 [6] was over 2.56 µM. For the same compound, the IC50 [7] was over 2.56 µM, the IC50 [8] was over 2.56 µM and the IC50 [9] was over 2560 nM. The IC50 [10] was 1600 nM, the IC50 [11] was over 2560 nM and the IC50 [12] was over 2.56 µM. It also gave an IC50 [13] of over 2.56 µM, an IC50 [14] of over 2.56 µM and an IC50 [15] of over 2.56 µM. It also gave an IC50 [16] of over 2560 nM, an IC50 [17] of over 2.56 µM and an IC50 [18] of 2.05 µM. The IC50 [19] was over 2560 nM, the IC50 [20] was over 2.56 µM and the IC50 [21] was over 2560 nM. It also gave an IC50 [22] of over 2.56 µM, an IC50 [23] of over 2560 nM and an IC50 [24] of 214 nM. For the same compound, the IC50 [25] was over 2.56 µM, the IC50 [26] was over 2.56 µM and the IC50 [27] was over 2.56 µM. The IC50 [28] was over 2.56 µM, the IC50 [29] was over 2.56 µM and the IC50 [30] was over 2560 nM. It also gave an IC50 [31] of over 2.56 µM, an IC50 [32] of over 2.56 µM and an IC50 [33] of over 2.56 µM. It also gave an IC50 [34] of over 2560 nM, an IC50 [35] of over 2.56 µM and an IC50 [36] of over 2.56 µM. The IC50 [37] was over 2560 nM, the IC50 [38] was over 2.56 µM and the IC50 [39] was over 2.56 µM. For the same compound, the IC50 [40] was over 2560 nM, the IC50 [41] was over 2560 nM and the IC50 [42] was over 2560 nM. It also gave an IC50 [43] of over 2560 nM, an IC50 [44] of over 2.56 µM and an IC50 [45] of over 2.56 µM. The IC50 [46] was over 2560 nM, the IC50 [47] was over 2560 nM and the IC50 [48] was over 2560 nM. For the same compound, the IC50 [49] was over 2560 nM, the IC50 [50] was over 2.56 µM and the IC50 [51] was over 2.56 µM. The IC50 [52] was over 2560 nM.
